We go through eight compounds from ChEMBL document CHEMBL1124350, “Retinobenzoic acids. 4. Conformation of aromatic amides with retinoidal activity. Importance of trans-amide structure for the activity” (1989).

Molecules are shown by their SMILES.

For assay [1], the system named is HL-60. As to the kind of experiment: Relative activity expressed as mean of ratio of effective dose of retinoic acid against HL-60 cell versus the compound. In kind it is functional, Homo sapiens.
The test system of assay [2] is HL-60. Put plainly: Compound was tested for differentiation-inducing activity against human promyelocytic leukemia cell line HL-60. In kind it is functional. The following applies: read-out: ED50 (the source's name).

As for `CC1(C)CCC(C)(C)c2cc3c(cc21)CN(c1ccc(C(=O)O)cc1)C3=O`, in the assay with HL-60 [1], the Relative activity came out at 0.33. For the same compound, the EC50 in the assay with HL-60 [2] was determined as 510 nM.

For `CC1(C)CCC(C)(C)c2cc3c(ccn3C(=O)c3ccc(C(=O)O)cc3)cc21`, the Relative activity in the assay on HL-60 [1] was 2.6. The EC50 in the assay with HL-60 [2] is 65 nM.

On to `CC1(C)CCC(C)(C)c2cc3c(cc21)CCN3C(=O)c1ccc(C(=O)O)cc1`, for which, in the assay on HL-60 [1], the Relative activity was determined as 1.1. The EC50 in the assay with HL-60 [2] was found to be 150 nM.

Turning to `CN(C(=O)c1ccc(C(=O)O)cc1)c1ccc2c(c1)C(C)(C)CCC2(C)C`, the Relative activity in the assay with HL-60 [1] is given as <0.01. Also, the EC50 in the assay with HL-60 [2] is > 1000 nM.

Consider `CC1(C)CCC(C)(C)c2cc(C(=O)Nc3ccc(C(=O)O)cc3)ccc21`, for which the Relative activity with HL-60 [1] is 720. Further, in the assay on HL-60 [2], the EC50 stood at 0.34 nM.

Regarding `CN(C(=O)c1ccc2c(c1)C(C)(C)CCC2(C)C)c1ccc(C(=O)O)cc1`, in the assay on HL-60 [1], the Relative activity was < 0.01. In addition, the EC50 in the assay on HL-60 [2] was > 1000 nM.

With `CC1(C)CCC(C)(C)c2cc(NC(=O)c3ccc(C(=O)O)cc3)ccc21` [TAMIBAROTENE], the Relative activity in the assay with HL-60 [1] was determined as 350. In addition, in the assay on HL-60 [2], the EC50 worked out at 0.79 nM.

For `CC1=C(/C=C/C(C)=C/C=C/C(C)=C/C(=O)O)C(C)(C)CCC1` [TRETINOIN], in the assay with HL-60 [1], the Relative activity worked out at 100. Further, the EC50 in the assay on HL-60 [2] was 2.4 nM.
